Assay results reported in US20110091945A1, “METHODS OF INCREASING BIOMASS PRODUCTIVITY, LIPID INDUCTION, AND CONTROLLING METABOLITES IN ALGAE FOR PRODUCTION OF BIOFUELS USING BIOCHEMICAL STIMULANTS” (priority 2009, published 2011).

Tests used:
[1] = test system: Chlorella sorokiniana; assay: Biostimulant static culture batch study: chlorophyll content; type: cell-based, Chlorella sorokiniana (UTEX 2805); design: increase in chlorophyll over control / decrease in chlorophyll content versus control: concentration or dose not given beside the values; settings: for increase in chlorophyll over control: day 10; for decrease in chlorophyll content versus control: day 5
Method: (§1) The pH value of culture medium was adjusted to 7.0±0.2 before inoculation and the alga was maintained in a temperature controlled growth chamber at 25±1° C. and 100±10 μmoles/m^2/s light intensity provided by cool white fluorescent (6500K) T-8 bulbs.
(§2) • Selection of the biochemical stimulants: Ten biochemical stimulants were selected, including indole-acetic acid, naphthalene-acetic acid, and phenyl-acetic acid The structures are shown in FIGS. 1 and 2. • Biochemical stimulants: Naphthalene acetic acid (NAA), indole-butryic acid […], gibberellic acid, and kelp extract were obtained from Super-Grow Plant Care, Montreal, Canada; Zeatin, and thidiazuron were obtained from bioWORLD, GeneLinx International, Inc, Ohio, USA; phenyl-acetic acid was supplied by Sigma-Aldrich, St. Louis, Mo., USA.
(§3) The experiment devised for the testing of biostimulants was a static culture batch study performed in triplicates for all treatments. Samples were collected and analyzed on day 0, 5 and 10. The growth medium was comprised of 90 ml of BG11 with appropriate concentrations of various biostimulants. Biochemical stimulants were filter sterilized through 0.22 μm Whatman syringe filter to avoid bacterial contamination. Each flask received 10 ml inoculum of exponentially growing Chlorella sorokiniana. After inoculation, flasks were incubated in the environmental growth chamber for 10 days in a temperature controlled growth chamber at 25±1° C. and 100±10 μmoles/m^21s light intensity provided by cool white fluorescent (6500K) T-8 bulbs.
(§4) • Analysis: Optical density was measured at 750 nm using a UV/Visible Spectrophotometer (Varian Cary 50, Varian Inc, Palo Alto, Calif., USA). Chlorophyll content was estimated following the method of Porra et al., ((1989) Biochem. Biophys. Acta 975: 384-394, incorporated herein in its entirety). The carbohydrate and protein content were estimated using the well-known methods of Dubois and Lowry respectively. Biomass was determined by filtering 25 mL of culture using pre-weighed Whatman GF/C glass fiber filters (1.2 μm). The material was washed with deionized water, dried at 60° C. for 12 h, and weighed. Photosynthetic efficiency and kinetics were determined by chlorophyll a fluorescence analysis using a Pulse Amplitude Modulation Fluorometer (Mini-PAM Chlorophyll a Fluorometer, Heinz Walz GmbH, Effeltrich, Germany).

[2] = test system: Chlorella sorokiniana; assay: Biostimulant static culture batch study: biomass productivity; type: cell-based, Chlorella sorokiniana (UTEX 2805); settings: for effect on biomass / algal growth versus control, in words: day 5 and 10; for effect on biomass / algal growth versus control, in words / growth (biomass) increase over control: dosage of Table 1; for biomass (cell concentration / biomass productivity): 0.16 g/L with no biostimulants; for increase in biomass over control: dosage of Table 1 (NAA 5 ppm, PAA 30 ppm, IBA 10 ppm); for growth (biomass) increase over control: day not given
Method: as §1, §2, §3, §4

[3] = test system: Chlorella sorokiniana; assay: Biostimulant static culture batch study: total carbohydrate content; type: cell-based, Chlorella sorokiniana (UTEX 2805); settings: for effect on carbohydrate synthesis versus control, in words: day 5; for increase in carbohydrate over control: day 10
Method: as §1, §2, §3, §4

[4] = test system: Scenedesmus obliquus; settings: 0.5% (v/v); cited from earlier work
[5] = test system: soy callus and radish cotyledon; settings: cited from earlier work
[6] = test system: callus tissue culture from tobacco; settings: cited from earlier work
[7] = test system: Dunaliella tertiolecta; settings: 136 mg L^−1; cited from earlier work

C=C1C[C@]23C[C@@]1(O)CC[C@H]2[C@@]12C=C[C@H](O)[C@@](C)(C(=O)O1)[C@H]2[C@@H]3C(=O)O [GAA, gibberellic acid]
effect on chlorophyll synthesis, in words [1]: inhibiting chlorophyll synthesis throughout the growth period | increase in chlorophyll over control [1]: 30% | effect on biomass / algal growth versus control, in words [2]: barely surpassed the control on day 5 | biomass (cell concentration / biomass productivity) ([2]; day 10): ~0.28 g/L | increase in biomass over control ([2]; day 10, listed as GA): approximately 30% | increase in biomass over control ([2]; day 10, listed as GA3): 81%

O=C(O)CCCc1c[nH]c2ccccc12 [IBA, indole-butryic acid]
effect on chlorophyll synthesis, in words [1]: marginal increase by day 5 | increase in chlorophyll over control [1]: 93% | effect on carbohydrate synthesis versus control, in words [3]: reduced carbohydrate contents on day 5 | increase in biomass over control ([2]; day 5): 74% | effect on biomass / algal growth versus control, in words [2]: stimulated biomass growth during the entire 0-10 day growth period | biomass (cell concentration / biomass productivity) ([2]; day 10): 0.28 g/L | increase in biomass over control ([2]; day 10): 76%

CO [MeOH, methanol]
decrease in chlorophyll content versus control [1]: 45% | increase in the growth rate [4]: > 300%

O=C(O)Cc1ccccc1 [PAA, Phenyl acetic acid]
decrease in chlorophyll content versus control [1]: 37% | effect on carbohydrate synthesis versus control, in words [3]: reduced carbohydrate contents on day 5 | increase in carbohydrate over control [3]: 27% | increase in biomass over control ([2]; day 5): 95% | increase in biomass over control ([2]; day 10): 42%

O=C(Nc1ccccc1)Nc1cnns1 [TDZ, thidiazuron]
increase in chlorophyll over control [1]: 30% | increase in biomass over control ([2]; day 10): approximately 30% | growth (biomass) increase over control [2]: 33% | optimal dose that generated maximum growth in soy callus and expansion of radish cotyledon [5]: 1 µM

C/C(=C\CNc1ncnc2[nH]cnc12)CO [Zeatin]
activity relative to its cis isomer [6]: at least 50 times | optimal dosage for maximum growth of callus tissue culture [6]: 10^−2 μM | effect on carbohydrate synthesis versus control, in words [3]: reduced carbohydrates synthesis on day 5 | increase in carbohydrate over control [3]: 31% | growth (biomass) increase over control [2]: 27%

CCNc1nc(Cl)nc(NC(C)C)n1 [atrazine]
increase in lipid content relative to the control [7]: 101% | reduction of protein content relative to the control [7]: 57%

[Cl][Fe]([Cl])[Cl] [ferric chloride]
decrease in chlorophyll content versus control [1]: 65% | effect on biomass / algal growth versus control, in words [2]: only marginal increases and decreases on day 10 and 5
